# Reference: ChEMBL document CHEMBL4028802, “DILIrank: the largest reference drug list ranked by the risk for developing drug-induced liver injury in humans” (Drug Discov Today, 2016)
# Starred links: 1 amine or outer side, 2 acyl side, 3 side chain; linkers in the order of their positions; H or OH if unused. Positions of bridges follow the written chain, without caps; N, C: chain ends. Non-standard residues stand in square brackets, D forms with d. Residues, ends and D or L forms follow the SMILES beside them. *: point of attachment. pTerphenylCO(4''-OnC5H11) = CCCCCOc1ccc(-c2ccc(-c3ccc(C(=O)*)cc3)cc2)cc1; Orn(4R-OH,5R-OH) = O=C([C@H](C[C@@H](O)[C@@H](O)N[*:3])N[*:1])[*:2]; hTyr(3S-OH,4S-OH) = N[C@H](C(=O)O)[C@H](O)[C@@H](O)c1ccc(O)cc1; Ileψ(thiazoline)Cys = CC[C@H](C)[C@H](N)C1=N[C@H](C(=O)*)CS1; Pro(3S-OH,4S-Me) = C[C@H]1CN[C@H](C(=O)O)[C@H]1O; Hyp = O=C(O)[C@@H]1C[C@@H](O)CN1; dOrn = NCCC[C@@H](N)C(=O)O
# Tests used:
# Homo sapiens [1] = species: Homo sapiens; assay: Liver toxicity in human assessed as induction of drug-induced liver injury by measuring verified drug-induced liver injury concern status
# Homo sapiens [2] = species: Homo sapiens; assay: Liver toxicity in human assessed as induction of drug-induced liver injury by measuring severity class index
# Throughout, for DILI severity class: key of the grades not given here.
Structure (SMILES),DILI_Concern (Homo sapiens [1]),DILI_severity_class (Homo sapiens [2])
CCCN(CCC)C(=O)Cc1c(-c2ccc(Cl)cc2)nc2ccc(Cl)cn12 [ALPIDEM],Most-Dili-Concern,8
Cc1nnc2n1-c1ccc(Cl)cc1C(c1ccccc1)=NC2 [ALPRAZOLAM],Less-Dili-Concern,7
CN(C)c1nc(N(C)C)nc(N(C)C)n1 [ALTRETAMINE],Ambiguous-Dili-Concern,2
C[C@H]1CN(C[C@H](Cc2ccccc2)C(=O)NCC(=O)O)CC[C@@]1(C)c1cccc(O)c1 [ALVIMOPAN],No-Dili-Concern,0
NC12CC3CC(CC(C3)C1)C2 [AMANTADINE],Ambiguous-Dili-Concern,3
CC[N+](CC)(CCNC(=O)C(=O)NCC[N+](CC)(CC)Cc1ccccc1Cl)Cc1ccccc1Cl [AMBENONIUM],No-Dili-Concern,0
COC(c1ccccc1)(c1ccccc1)[C@H](Oc1nc(C)cc(C)n1)C(=O)O [AMBRISENTAN],Ambiguous-Dili-Concern,7
NCCCNCCSP(=O)(O)O [AMIFOSTINE],No-Dili-Concern,0
NCC[C@H](O)C(=O)N[C@@H]1C[C@H](N)[C@@H](O[C@H]2O[C@H](CN)[C@@H](O)[C@H](O)[C@H]2O)[C@H](O)[C@H]1O[C@H]1O[C@H](CO)[C@@H](O)[C@H](N)[C@H]1O [AMIKACIN],No-Dili-Concern,0
N=C(N)NC(=O)c1nc(Cl)c(N)nc1N [AMILORIDE],Less-Dili-Concern,3
O=C(O)CCCCCCNC1c2ccccc2CCc2ccccc21 [AMINEPTINE],Most-Dili-Concern,8
NCCCCCC(=O)O [AMINOCAPROIC ACID],No-Dili-Concern,0
Nc1ccc(C(=O)NCC(=O)O)cc1 [AMINOHIPPURIC ACID],No-Dili-Concern,0
Cn1c(=O)c2[nH]cnc2n(C)c1=O.Cn1c(=O)c2[nH]cnc2n(C)c1=O.NCCN [AMINOPHYLLINE],No-Dili-Concern,0
Nc1ccc(C(=O)O)c(O)c1 [AMINOSALICYLIC ACID],Most-Dili-Concern,5
CCCCc1oc2ccccc2c1C(=O)c1cc(I)c(OCCN(CC)CC)c(I)c1 [AMIODARONE],Most-Dili-Concern,8
CN(C)CCC=C1c2ccccc2CCc2ccccc21 [AMITRIPTYLINE],Less-Dili-Concern,5
CCOC(=O)C1=C(COCCN)NC(C)=C(C(=O)OC)C1c1ccccc1Cl (stereo not given) [AMLODIPINE],Less-Dili-Concern,5
Cl.N [AMMONIUM CHLORIDE],No-Dili-Concern,0
Clc1ccc2c(c1)C(N1CCNCC1)=Nc1ccccc1O2 [AMOXAPINE],Ambiguous-Dili-Concern,3
CC1(C)S[C@@H]2[C@H](NC(=O)[C@H](N)c3ccc(O)cc3)C(=O)N2[C@H]1C(=O)O [AMOXICILLIN],Less-Dili-Concern,5
CC(N)Cc1ccccc1 (stereo not given) [AMPHETAMINE],Less-Dili-Concern,0
C[C@@H]1[C@H](O)[C@@H](C)/C=C/C=C/C=C/C=C/C=C/C=C/C=C/[C@H](O[C@@H]2O[C@H](C)[C@@H](O)[C@H](N)[C@@H]2O)C[C@@H]2O[C@](O)(C[C@@H](O)C[C@@H](O)[C@H](O)CC[C@@H](O)C[C@@H](O)CC(=O)O[C@H]1C)C[C@H](O)[C@H]2C(=O)O [AMPHOTERICIN B],Less-Dili-Concern,3
CC1(C)S[C@@H]2[C@H](NC(=O)[C@H](N)c3ccccc3)C(=O)N2[C@H]1C(=O)O [AMPICILLIN],Less-Dili-Concern,3
O=C1CN2Cc3c(ccc(Cl)c3Cl)N=C2N1 [ANAGRELIDE],Ambiguous-Dili-Concern,3
CC(C)(C#N)c1cc(Cn2cncn2)cc(C(C)(C)C#N)c1 [ANASTROZOLE],Less-Dili-Concern,3
"CCCCCOc1ccc(-c2ccc(-c3ccc(C(=O)N[C@H]4C[C@@H](O)[C@@H](O)NC(=O)[C@@H]5[C@@H](O)[C@@H](C)CN5C(=O)[C@H]([C@@H](C)O)NC(=O)[C@H]([C@H](O)[C@@H](O)c5ccc(O)cc5)NC(=O)[C@@H]5C[C@@H](O)CN5C(=O)[C@H]([C@@H](C)O)NC4=O)cc3)cc2)cc1 [ANIDULAFUNGIN] ({pTerphenylCO(4''-OnC5H11)}-[Orn(4R-OH,5R-OH)]T[Hyp][hTyr(3S-OH,4S-OH)]T[Pro(3S-OH,4S-Me)]; lactam 1-C)",Ambiguous-Dili-Concern,7
CCCCN1C(=O)[C@@H]([C@H](O)C2CCCCC2)NC(=O)C12CCN(Cc1ccc(Oc3ccc(C(=O)O)cc3)cc1)CC2 [APLAVIROC],Most-Dili-Concern,8

Structure (SMILES),DILI_Concern (Homo sapiens [1]),DILI_severity_class (Homo sapiens [2])
CN1CCc2cccc3c2[C@H]1Cc1ccc(O)c(O)c1-3 [APOMORPHINE],No-Dili-Concern,0
C[C@@H](O[C@H]1OCCN(Cc2n[nH]c(=O)[nH]2)[C@H]1c1ccc(F)cc1)c1cc(C(F)(F)F)cc(C(F)(F)F)c1 [APREPITANT],Ambiguous-Dili-Concern,3
CC1CNc2c(cccc2S(=O)(=O)N[C@@H](CCCNC(=N)N)C(=O)N2CC[C@@H](C)C[C@@H]2C(=O)O)C1 (stereo not given in full) [ARGATROBAN],No-Dili-Concern,0
N=C(N)NCCC[C@H](N)C(=O)O [ARGININE],No-Dili-Concern,0
O=C1CCc2ccc(OCCCCN3CCN(c4cccc(Cl)c4Cl)CC3)cc2N1 [ARIPIPRAZOLE],Ambiguous-Dili-Concern,5
NC(=O)C[S@@+]([O-])C(c1ccccc1)c1ccccc1 [ARMODAFINIL],Ambiguous-Dili-Concern,3
O=[As][As+](=O)[O-] (stereo not given) [ARSENIC TRIOXIDE],Ambiguous-Dili-Concern,3
O=C1O[C@H]([C@@H](O)CO)C(O)=C1O [ASCORBIC ACID],No-Dili-Concern,0
CC(=O)Oc1ccccc1C(=O)O [ASPIRIN],Less-Dili-Concern,0
COC(=O)N[C@H](C(=O)N[C@@H](Cc1ccccc1)[C@@H](O)CN(Cc1ccc(-c2ccccn2)cc1)NC(=O)[C@@H](NC(=O)OC)C(C)(C)C)C(C)(C)C [ATAZANAVIR],Less-Dili-Concern,3
CC(C)NCC(O)COc1ccc(CC(N)=O)cc1 (stereo not given) [ATENOLOL],Less-Dili-Concern,4
CNCC[C@@H](Oc1ccccc1C)c1ccccc1 [ATOMOXETINE],Most-Dili-Concern,8
CC(C)c1c(C(=O)Nc2ccccc2)c(-c2ccccc2)c(-c2ccc(F)cc2)n1CC[C@@H](O)C[C@@H](O)CC(=O)O [ATORVASTATIN],Most-Dili-Concern,5
O=C1C(O)=C([C@H]2CC[C@H](c3ccc(Cl)cc3)CC2)C(=O)c2ccccc21 [ATOVAQUONE],Ambiguous-Dili-Concern,8
CN1[C@@H]2CC[C@H]1C[C@@H](OC(=O)C(CO)c1ccccc1)C2 (stereo not given in full) [ATROPINE],No-Dili-Concern,0
Nc1ncn([C@@H]2O[C@H](CO)[C@@H](O)[C@H]2O)c(=O)n1 [AZACITIDINE],Ambiguous-Dili-Concern,8
Cn1cnc([N+](=O)[O-])c1Sc1ncnc2nc[nH]c12 [AZATHIOPRINE],Most-Dili-Concern,5
CC[C@H]1OC(=O)[C@H](C)[C@@H](O[C@H]2C[C@@](C)(OC)[C@@H](O)[C@H](C)O2)[C@H](C)[C@@H](O[C@@H]2O[C@H](C)C[C@H](N(C)C)[C@H]2O)[C@](C)(O)C[C@@H](C)CN(C)[C@H](C)[C@@H](O)[C@]1(C)O [AZITHROMYCIN],Less-Dili-Concern,7
C[C@H]1[C@H](NC(=O)/C(=N\OC(C)(C)C(=O)O)c2csc(N)n2)C(=O)N1S(=O)(=O)O [AZTREONAM],Ambiguous-Dili-Concern,5
CC[C@H](C)[C@H](N)C1=N[C@H](C(=O)N[C@@H](CC(C)C)C(=O)N[C@H](CCC(=O)O)C(=O)N[C@H](C(=O)N[C@H]2CCCCNC(=O)[C@H](CC(N)=O)NC(=O)[C@@H](CC(=O)O)NC(=O)[C@H](Cc3cnc[nH]3)NC(=O)[C@@H](Cc3ccccc3)NC(=O)[C@H]([C@@H](C)CC)NC(=O)[C@@H](CCCN)NC2=O)[C@@H](C)CC)CS1 [BACITRACIN] ({Ileψ(thiazoline)Cys}-L[dE]IK[dOrn]I[dF]H[dD]N; lactam 4-C),No-Dili-Concern,0
NCC(CC(=O)O)c1ccc(Cl)cc1 (stereo not given) [BACLOFEN],Less-Dili-Concern,3
O=C(O)CCNC(=O)c1ccc(/N=N/c2ccc(O)c(C(=O)O)c2)cc1 [BALSALAZIDE],Ambiguous-Dili-Concern,8
CCOC(=O)[C@H](CCc1ccccc1)N[C@H]1CCc2ccccc2N(CC(=O)O)C1=O [BENAZEPRIL],Less-Dili-Concern,4
Cn1c(CCCC(=O)O)nc2cc(N(CCCl)CCCl)ccc21 [BENDAMUSTINE],No-Dili-Concern,0
O=C(O)COc1nn(Cc2ccccc2)c2ccccc12 [BENDAZAC],Most-Dili-Concern,8
NS(=O)(=O)c1cc2c(cc1C(F)(F)F)NC(Cc1ccccc1)NS2(=O)=O (stereo not given) [BENDROFLUMETHIAZIDE],Less-Dili-Concern,5
CC(C(=O)O)c1ccc2oc(-c3ccc(Cl)cc3)nc2c1 (stereo not given) [BENOXAPROFEN],Most-Dili-Concern,8
